Source: the supplement of paper PMC10307832

Assays:
Experiment in all cases: relative viability (nuclei count vs DMSO), 5 days (fraction); higher = more cells survive
BEN = system: BEN
How it was run: (§1)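 Relative viability is defined as nuclei in treated wells over nuclei in vehicle wells. Duplicate plates were run and medians reported. Lung cancer cell lines in 1536-well plates were dosed by pin tool one day after seeding, with one drug or with a fixed anchor-drug dose plus five library-drug doses (not always all listed) in √10 steps, and nuclei were counted after 5 days.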

NCI-H2085 = system: NCI-H2085
How it was run: as §1

LOU-NH91 = system: LOU-NH91
How it was run: as §1

LCLC-103H = system: LCLC-103H
How it was run: as §1

RERF-LC-KJ = system: RERF-LC-KJ
How it was run: as §1

A-427 = system: A-427
How it was run: as §1

CAL-12T = system: CAL-12T
How it was run: as §1

NCI-H460 = system: NCI-H460
How it was run: as §1

NCI-H727 = system: NCI-H727
How it was run: as §1

HARA = system: HARA
How it was run: as §1

NCI-H647 = system: NCI-H647
How it was run: as §1

ABC-1 = system: ABC-1
How it was run: as §1

NCI-H520 = system: NCI-H520
How it was run: as §1

NCI-H1944 = system: NCI-H1944
How it was run: as §1

NCI-H661 = system: NCI-H661
How it was run: as §1

NCI-H1651 = system: NCI-H1651
How it was run: as §1

NCI-H2126 = system: NCI-H2126
How it was run: as §1

NCI-H1975 = system: NCI-H1975
How it was run: as §1

NCI-H596 = system: NCI-H596
How it was run: as §1

NCI-H838 = system: NCI-H838
How it was run: as §1

NCI-H1734 = system: NCI-H1734
How it was run: as §1

NCI-H1666 = system: NCI-H1666
How it was run: as §1

In the case of `Nc1cccc2c1CN(C1CCC(=O)NC1=O)C2=O` (stereo unspecified) [Lenalidomide] + Cc1nc(NC(=O)N2CCC[C@H]2C(N)=O)sc1-c1ccnc(C(C)(C)C(F)(F)F)c1 [Alpelisib] (partner 2 µM), the relative viability (BEN; first compound 0.253 µM) is reported as 1.05, the relative viability (BEN; first compound 0.8 µM) is reported as 1.01 and the relative viability (BEN; first compound 2.53 µM) is reported as 1.16. The relative viability (BEN; first compound 8 µM) was 0.788, the relative viability (NCI-H2085; first compound 0.253 µM) was 1.01 and the relative viability (NCI-H2085; first compound 0.8 µM) was 0.997. It also gave a relative viability (NCI-H2085; first compound 2.53 µM) of 0.952, a relative viability (NCI-H2085; first compound 8 µM) of 0.972 and a relative viability (LOU-NH91; first compound 0.253 µM) of 0.686. The relative viability (LOU-NH91; first compound 0.8 µM) was 0.762, the relative viability (LOU-NH91; first compound 2.53 µM) was 0.73 and the relative viability (LOU-NH91; first compound 8 µM) was 0.662. For the same compound, the relative viability (LCLC-103H; first compound 0.253 µM) was 0.993, the relative viability (LCLC-103H; first compound 0.8 µM) was 1 and the relative viability (LCLC-103H; first compound 2.53 µM) was 0.862. It also gave a relative viability (LCLC-103H; first compound 8 µM) of 0.674, a relative viability (RERF-LC-KJ; first compound 0.253 µM) of 0.624 and a relative viability (RERF-LC-KJ; first compound 0.8 µM) of 0.904. The relative viability (RERF-LC-KJ; first compound 2.53 µM) was 0.752, the relative viability (RERF-LC-KJ; first compound 8 µM) was 0.637 and the relative viability (A-427; first compound 0.253 µM) was 1.11. It also gave a relative viability (A-427; first compound 2.53 µM) of 1.09, a relative viability (A-427; first compound 8 µM) of 1.02 and a relative viability (CAL-12T; first compound 0.253 µM) of 1.09. The relative viability (CAL-12T; first compound 0.8 µM) was 1.33, the relative viability (CAL-12T; first compound 2.53 µM) was 1.52 and the relative viability (CAL-12T; first compound 8 µM) was 1.36. It also gave a relative viability (NCI-H460; first compound 0.253 µM) of 0.363, a relative viability (NCI-H460; first compound 0.8 µM) of 0.492 and a relative viability (NCI-H460; first compound 2.53 µM) of 0.667. The relative viability (NCI-H460; first compound 8 µM) was 0.57, the relative viability (NCI-H727; first compound 0.253 µM) was 0.546 and the relative viability (NCI-H727; first compound 2.53 µM) was 0.543. For the same compound, the relative viability (NCI-H727; first compound 8 µM) was 0.553, the relative viability (HARA; first compound 0.253 µM) was 0.782 and the relative viability (HARA; first compound 0.8 µM) was 0.771. The relative viability (HARA; first compound 2.53 µM) was 0.921, the relative viability (HARA; first compound 8 µM) was 0.743 and the relative viability (NCI-H647; first compound 0.253 µM) was 1.22. For the same compound, the relative viability (NCI-H647; first compound 0.8 µM) was 1.14, the relative viability (NCI-H647; first compound 2.53 µM) was 1.1 and the relative viability (NCI-H647; first compound 8 µM) was 1.12. It also gave a relative viability (ABC-1; first compound 0.253 µM) of 0.948, a relative viability (ABC-1; first compound 0.8 µM) of 0.996 and a relative viability (ABC-1; first compound 2.53 µM) of 1.02. The relative viability (ABC-1; first compound 8 µM) was 1.01, the relative viability (NCI-H520; first compound 0.253 µM) was 0.88 and the relative viability (NCI-H520; first compound 0.8 µM) was 0.922. The relative viability (NCI-H520; first compound 2.53 µM) was 1.15, the relative viability (NCI-H520; first compound 8 µM) was 0.779 and the relative viability (NCI-H1944; first compound 0.253 µM) was 0.885. For the same compound, the relative viability (NCI-H1944; first compound 0.8 µM) was 0.934, the relative viability (NCI-H1944; first compound 2.53 µM) was 0.897 and the relative viability (NCI-H1944; first compound 8 µM) was 0.654. For the same compound, the relative viability (NCI-H661; first compound 0.253 µM) was 0.957, the relative viability (NCI-H661; first compound 0.8 µM) was 0.447 and the relative viability (NCI-H661; first compound 2.53 µM) was 0.458. The relative viability (NCI-H661; first compound 8 µM) was 0.544, the relative viability (NCI-H1651; first compound 0.253 µM) was 0.894 and the relative viability (NCI-H1651; first compound 0.8 µM) was 1.14. It also gave a relative viability (NCI-H1651; first compound 2.53 µM) of 1.04, a relative viability (NCI-H1651; first compound 8 µM) of 1.07 and a relative viability (NCI-H2126; first compound 0.253 µM) of 0.735. It also gave a relative viability (NCI-H2126; first compound 0.8 µM) of 0.75, a relative viability (NCI-H2126; first compound 2.53 µM) of 0.646 and a relative viability (NCI-H2126; first compound 8 µM) of 0.55. It also gave a relative viability (NCI-H1975; first compound 0.253 µM) of 0.724, a relative viability (NCI-H1975; first compound 0.8 µM) of 0.667 and a relative viability (NCI-H1975; first compound 2.53 µM) of 0.753. It also gave a relative viability (NCI-H1975; first compound 8 µM) of 0.592, a relative viability (NCI-H596; first compound 0.253 µM) of 0.574 and a relative viability (NCI-H596; first compound 0.8 µM) of 0.452. For the same compound, the relative viability (NCI-H596; first compound 2.53 µM) was 0.481, the relative viability (NCI-H596; first compound 8 µM) was 0.497 and the relative viability (NCI-H838; first compound 0.253 µM) was 0.97. The relative viability (NCI-H838; first compound 0.8 µM) was 1, the relative viability (NCI-H838; first compound 2.53 µM) was 1.25 and the relative viability (NCI-H838; first compound 8 µM) was 0.896. It also gave a relative viability (NCI-H1734; first compound 0.253 µM) of 0.669, a relative viability (NCI-H1734; first compound 0.8 µM) of 0.757 and a relative viability (NCI-H1734; first compound 2.53 µM) of 0.746. It also gave a relative viability (NCI-H1734; first compound 8 µM) of 0.608, a relative viability (NCI-H1666; first compound 0.253 µM) of 1.04 and a relative viability (NCI-H1666; first compound 0.8 µM) of 0.83. The relative viability (NCI-H1666; first compound 2.53 µM) was 0.882 and the relative viability (NCI-H1666; first compound 8 µM) was 1.04.
